Experimental data published in US20230295197A1, “STAT5 and STAT6 Degraders and Uses Thereof” (REGENTS OF THE UNIVERSITY OF MICHICAN, priority 2022, published 2023).
Read-outs that look alike come from different tables or passages of the source.

How the values were obtained:
[1] = tested on: STAT5; experiment: Immunoblotting (Western blot) analysis of STAT5 degradation efficiency of degraders in treated cells; format: cell-based
In short: (§1)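 Cells (~1 million per point) treated with compounds at indicated concentrations and times, lysed in RIPA with protease/phosphatase inhibitors; 20-40 μg protein run on SDS-PAGE and blotted to PVDF. STAT6 or STAT5 rabbit mAbs with GAPDH loading control, IRDye secondaries; near-infrared fluorescence scan, band intensity quantified.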

[2] = target: T1, STAT6 (Homo sapiens, UniProt P42226); experiment: Immunoblotting (Western blot) analysis of STAT6 degradation efficiency of degraders in treated cells; format: cell-based
T1 construct: endogenous in cells; host or cells: MOLM-16, KU-812, SKNO1, MB231, L1236
T1 sequence (P42226 1-847): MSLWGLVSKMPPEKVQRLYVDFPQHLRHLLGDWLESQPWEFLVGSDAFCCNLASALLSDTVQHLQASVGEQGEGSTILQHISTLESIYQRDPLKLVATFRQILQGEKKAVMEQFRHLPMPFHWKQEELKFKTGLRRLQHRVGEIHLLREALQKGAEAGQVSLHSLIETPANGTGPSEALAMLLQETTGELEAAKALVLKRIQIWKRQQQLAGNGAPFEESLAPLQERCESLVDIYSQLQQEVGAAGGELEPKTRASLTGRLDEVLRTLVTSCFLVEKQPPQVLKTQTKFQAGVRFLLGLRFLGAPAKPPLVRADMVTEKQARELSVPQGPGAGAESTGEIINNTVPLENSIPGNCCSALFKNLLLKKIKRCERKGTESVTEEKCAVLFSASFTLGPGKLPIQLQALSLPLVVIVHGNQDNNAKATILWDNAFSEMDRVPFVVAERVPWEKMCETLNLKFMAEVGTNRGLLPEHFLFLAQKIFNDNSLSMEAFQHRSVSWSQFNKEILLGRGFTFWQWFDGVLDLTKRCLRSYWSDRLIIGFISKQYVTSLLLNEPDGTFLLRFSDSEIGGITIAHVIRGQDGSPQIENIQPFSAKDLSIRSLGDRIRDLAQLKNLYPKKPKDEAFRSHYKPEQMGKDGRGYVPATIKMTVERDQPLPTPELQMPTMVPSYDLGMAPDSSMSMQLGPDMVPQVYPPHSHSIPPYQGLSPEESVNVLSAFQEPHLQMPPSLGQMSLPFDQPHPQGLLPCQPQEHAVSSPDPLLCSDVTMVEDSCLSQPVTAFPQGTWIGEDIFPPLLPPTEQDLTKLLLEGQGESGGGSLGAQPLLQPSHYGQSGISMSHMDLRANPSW
In short: as §1

[3] = MOLM-16 cells, numeric bound, read-out: DC50 S5 MOLM-16
[4] = MOLM-16 cells, numeric bound, read-out: DC50 S6 MOLM-16
[5] = SKNO1 cells, read-out: DC50 S5 SKNO1
[6] = KU-812 cells, read-out: DC50 S5 KU-812
[7] = MOLM-16 cells, class symbols, read-out: DC50 S5 MOLM-16
[8] = L1236 cells, read-out: DC50 S6 L1236
[9] = MB231 cells, read-out: DC50 S6 MB231

SMILES | DC50 [2, 4] [nM] | DC50 [1, 5] [nM] | DC50 [1, 7] [nM] | DC50 [1, 3] [nM] | other results
Cc1ncsc1-c1ccc([C@H](CC(=O)NCCOCCOCCOCCC(=O)N[C@@H]2C[C@@H](C(=O)Nc3ncc(-c4ccccc4)s3)N(C(=O)[C@@H](NC(=O)c3cc4cc(C(F)(F)P(=O)(O)O)ccc4s3)C(C)(C)C)C2)NC(=O)[C@@H]2C[C@@H](O)CN2C(=O)[C@@H](NC(=O)C2(F)CC2)C(C)(C)C)cc1 [Compound 582, (difluoro(2-(((S)-1-((2S,4R)-4-((S)-1-((2S,4R)-1-((S)-2-(1-fluorocyclopropane-1-carboxamido)-3,3-dimethylbutanoyl)-4-hydroxypyrrolidin-2-yl)-3-(4-(4-methylthiazol-5-yl)phenyl)-1,5-dioxo-9,12,15-trioxa-2,6-diazaoctadecan-18-amido)-2-((5-phenylthiazol-2-yl)carbamoyl)pyrrolidin-1-yl)-3,3-dimethyl-1-oxobutan-2-yl)carbamoyl)benzo[b]thiophen-5-yl)methyl)phosphonic acid] | > 300 | – | – | > 300 | –
Cc1ncsc1-c1ccc([C@H](CC(=O)NCCOCCOCCC(=O)N[C@@H]2C[C@@H](C(=O)Nc3ncc(-c4ccccc4)s3)N(C(=O)[C@@H](NC(=O)c3cc4cc(C(F)(F)P(=O)(O)O)ccc4s3)C(C)(C)C)C2)NC(=O)[C@@H]2C[C@@H](O)CN2C(=O)[C@@H](NC(=O)C2(F)CC2)C(C)(C)C)cc1 [Compound 581, (difluoro(2-(((S)-1-((2S,4R)-4-((S)-1-((2S,4R)-1-((S)-2-(1-fluorocyclopropane-1-carboxamido)-3,3-dimethylbutanoyl)-4-hydroxypyrrolidin-2-yl)-3-(4-(4-methylthiazol-5-yl)phenyl)-1,5-dioxo-9,12-dioxa-2,6-diazapentadecan-15-amido)-2-((5-phenylthiazol-2-yl)carbamoyl)pyrrolidin-1-yl)-3,3-dimethyl-1-oxobutan-2-yl)carbamoyl)benzo[b]thiophen-5-yl)methyl)phosphonic acid] | > 300 | – | – | > 300 | –
CN(C(=O)[C@@H]1C[C@@H](OCC(=O)NCCCCCCCCC#Cc2cccc3c2CN(C2CCC(=O)NC2=O)C3=O)CN1C(=O)[C@@H](NC(=O)c1cc2cc(C(F)(F)P(=O)(O)O)ccc2s1)C(C)(C)C)c1ccc(Br)cc1 (stereo partly drawn) [Compound 414, ((2-(((2S)-1-((2S,4R)-2-((4-bromophenyl)(methyl)carbamoyl)-4-(2-((10-(2-(2,6-dioxopiperidin-3-yl)-1-oxoisoindolin-4-yl)dec-9-yn-1-yl)amino)-2-oxoethoxy)pyrrolidin-1-yl)-3,3-dimethyl-1-oxobutan-2-yl)carbamoyl)benzo[b]thiophen-5-yl)difluoromethyl)phosphonic acid] | – | > 10000 | – | – | DC50 [2, 8]: > 10000 nM; DC50 [2, 9]: > 10000 nM
CC(C)(C)[C@H](NC(=O)c1cc2cc(C(F)(F)P(=O)(O)O)ccc2s1)C(=O)N1CCC[C@H]1C(=O)N1C[C@@H](Oc2ccc3ccccc3c2)C[C@H]1C(=O)NCCCC#Cc1cccc2c1CN(C1CCC(=O)NC1=O)C2=O (stereo partly drawn) [Compound 659, ((2-(((2S)-1-((2S)-2-((2S,4S)-2-((5-(2-(2,6-dioxopiperidin-3-yl)-1-oxoisoindolin-4-yl)pent-4-yn-1-yl)carbamoyl)-4-(naphthalen-2-yloxy)pyrrolidine-1-carbonyl)pyrrolidin-1-yl)-3,3-dimethyl-1-oxobutan-2-yl)carbamoyl)benzo[b]thiophen-5-yl)difluoromethyl)phosphonic acid] | > 300 | – | – | > 300 | –

Second part, led by results:

DC50 [2, 4] [nM] | DC50 [1, 5] [nM] | DC50 [1, 7] [nM] | SMILES | DC50 [1, 3] [nM] | other results
> 300 | 1000 to 10000 | – | CC(C)(C)[C@H](NC(=O)c1cc2cc(C(F)(F)P(=O)(O)O)ccc2s1)C(=O)N1CCC[C@H]1C(=O)N(CCC(=O)NCCCC#Cc1cccc2c1CN(C1CCC(=O)NC1=O)C2=O)c1cccc2sccc12 (stereo partly drawn) [Compound 660, ((2-(((2S)-1-((2S)-2-(benzo[b]thiophen-4-yl(3-((5-(2-(2,6-dioxopiperidin-3-yl)-1-oxoisoindolin-4-yl)pent-4-yn-1-yl)amino)-3-oxopropyl)carbamoyl)pyrrolidin-1-yl)-3,3-dimethyl-1-oxobutan-2-yl)carbamoyl)benzo[b]thiophen-5-yl)difluoromethyl)phosphonic acid] | > 300 | –
> 300 | > 10000 | – | CC(C)(C)[C@H](NC(=O)c1cc2cc(C(F)(F)P(=O)(O)O)ccc2s1)C(=O)N1CCC[C@H]1C(=O)N(CCC(=O)NCCCC#Cc1cccc2c1CN(C1CCC(=O)NC1=O)C2=O)c1ccc2ncsc2c1 (stereo partly drawn) [Compound 662, ((2-(((2S)-1-((2S)-2-(benzo[d]thiazol-6-yl(3-((5-(2-(2,6-dioxopiperidin-3-yl)-1-oxoisoindolin-4-yl)pent-4-yn-1-yl)amino)-3-oxopropyl)carbamoyl)pyrrolidin-1-yl)-3,3-dimethyl-1-oxobutan-2-yl)carbamoyl)benzo[b]thiophen-5-yl)difluoromethyl)phosphonic acid] | > 300 | DC50 [1, 6]: > 10000 nM
> 300 | – | < 100 | CN(CCCC#Cc1cccc2c1CN(C1CCC(=O)NC1=O)C2=O)C(=O)CCN(C(=O)[C@@H]1CCCN1C(=O)[C@@H](NC(=O)c1cc2cc(C(F)(F)P(=O)(O)OCOC(=O)C(C)(C)C)ccc2s1)C(C)(C)C)c1ccc2scnc2c1 (stereo partly drawn) [Compound 676, ((((2-(((2S)-1-((2S)-2-(benzo[d]thiazol-5-yl(3-((5-(2-(2,6-dioxopiperidin-3-yl)-1-oxoisoindolin-4-yl)pent-4-yn-1-yl)(methyl)amino)-3-oxopropyl)carbamoyl)pyrrolidin-1-yl)-3,3-dimethyl-1-oxobutan-2-yl)carbamoyl)benzo[b]thiophen-5-yl)difluoromethyl)(hydroxy)phosphoryl)oxy)methyl pivalate] | – | –
– | – | < 100 | CN(CCCC#Cc1cccc2c1CN(C1CCC(=O)NC1=O)C2=O)C(=O)CCN(C(=O)[C@@H]1CCCN1C(=O)[C@@H](NC(=O)c1cc2cc(C(F)(F)P(=O)(O)OCOC(=O)C(C)(C)C)ccc2s1)C(C)(C)C)c1ccc(-c2nccs2)cc1 (stereo partly drawn) [Compound 679, ((((2-(((2S)-1-((2S)-2-((3-((5-(2-(2,6-dioxopiperidin-3-yl)-1-oxoisoindolin-4-yl)pent-4-yn-1-yl)(methyl)amino)-3-oxopropyl)(4-(thiazol-2-yl)phenyl)carbamoyl)pyrrolidin-1-yl)-3,3-dimethyl-1-oxobutan-2-yl)carbamoyl)benzo[b]thiophen-5-yl)difluoromethyl)(hydroxy)phosphoryl)oxy)methyl pivalate] | – | DC50 [1, 6]: 100 to 1000 nM; DC50 ([2]; MOLM-16 cells, class symbols, read-out: DC50 S6 MOLM-16): > 10000 nM
> 300 | – | < 100 | CN(CCCC#Cc1cccc2c1CN(C1CCC(=O)NC1=O)C2=O)C(=O)CCN(C(=O)[C@@H]1CCCN1C(=O)[C@@H](NC(=O)c1cc2cc(C(F)(F)P(=O)(O)OCOC(=O)C(C)(C)C)ccc2s1)C(C)(C)C)c1ccc2occc2c1 (stereo partly drawn) [Compound 672, ((((2-(((2S)-1-((2S)-2-(benzofuran-5-yl(3-((5-(2-(2,6-dioxopiperidin-3-yl)-1-oxoisoindolin-4-yl)pent-4-yn-1-yl)(methyl)amino)-3-oxopropyl)carbamoyl)pyrrolidin-1-yl)-3,3-dimethyl-1-oxobutan-2-yl)carbamoyl)benzo[b]thiophen-5-yl)difluoromethyl)(hydroxy)phosphoryl)oxy)methyl pivalate] | – | –
– | > 10000 | – | CN(C(=O)[C@@H]1C[C@@H](OCC(=O)NCCCC#Cc2cccc3c2CN(C2CCC(=O)NC2=O)C3=O)CN1C(=O)[C@@H](NC(=O)c1cc2cc(C(F)(F)P(=O)(O)O)ccc2s1)C(C)(C)C)c1ccc(Br)cc1 (stereo partly drawn) [Compound 411, ((2-(((2S)-1-((2S,4R)-2-((4-bromophenyl)(methyl)carbamoyl)-4-(2-((5-(2-(2,6-dioxopiperidin-3-yl)-1-oxoisoindolin-4-yl)pent-4-yn-1-yl)amino)-2-oxoethoxy)pyrrolidin-1-yl)-3,3-dimethyl-1-oxobutan-2-yl)carbamoyl)benzo[b]thiophen-5-yl)difluoromethyl)phosphonic acid] | – | DC50 [2, 8]: > 10000 nM; DC50 [2, 9]: > 10000 nM
